16 molecules from patent US12643884B2, “1-(2-(4-cyclopropyl-1H-1,2,3-triazol-1-yl)acetyl)-4-hydroxypyrrolidine-2-carboxa|mide derivatives as VHL inhibitors for the treatment of anemia” (Genentech, Inc., priority 2020, dated 2026) can be followed below.

Data set [1] has as its target T1, NanoLuc VHL fusion protein stably expressed in HEK 293 cells (Homo sapiens, UniProt P40337).
T1 construct: expressed in transfected cells
Briefly: VHL HEK-293 BRET Assay (VHL NanoBRET Target Engagement Assay). Format: cell-based. As to conditions: for IC50: HEK293 cells, nanoBRET, geometric mean where more than one measurement, read-out: VHL binding in cells (HEK293 nanoBRET); for Ratio cell permeability shift: ratio of nanoBRET in cells to nanoBRET +Digitonin. The method, then:
The VHL NanoBRET™ Target Engagement Assay analyzes the apparent affinity of test compounds for VHL in cells by competitive displacement of a VHL NanoBRET™ tracer reversibly bound to a NanoLuc® VHL fusion protein stably expressed in the cells.
Test compounds were transferred to the assay plate (384 Well White Non-Binding Corning Assay Plates (Corning-3574)) using an Echo 555 Liquid Handler (Labcyte) in 2.5 nL increments and, as appropriate, intermediate stock concentrations of compounds, in order to prepare a titration series. 50 nL of control compound (10 mM; parental unlabeled VHL antagonist; see structure below) and 50 nL of DMSO (negative control) were dispensed into the appropriate control wells. DMSO was backfilled to a final volume of 50 nL as required. 50 nl per well of 1 mM VHL NanoBRET™ Tracer in DMSO (NanoBRET™ Tracer-PEG2-590 (see structure below)) was transferred into each well using an Echo 555 (ultimately yielding a final concentration of 1 uM). HEK 293 RT VHL-NanoLuc® stable cells were cultured in DMEM High Glucose with Pyruvate, 10% fetal bovine serum, 2 mg/mL of Geneticin Selective Antibiotic (50 mg/ml) and 2 mM HEPES (1 M). Cells were seeded in Opti-MEM (Life Technologies-11058-021), 1.7×10^5 cells/mL, 40 μl per well into the assay plate, centrifuged at 500 rpm for 30 seconds and incubated for 2 hours. Max Signal control wells consisted of DMSO only treated wells. Minimum Signal control wells contained of 10 uM parental unlabeled VHL antagonist (control compound—see structure below). 3× Complete Substrate plus Inhibitor Solution was prepared in Opti-MEM (consists of a 1:166 dilution of NanoBRET™ Nano-Glo® Substrate plus a 1:500 dilution of Extracellular NanoLuc® Inhibitor in Opti-MEM), and 20 ul was dispensed into each well of the 384-well plate and centrifuged at 1000 rpm for 1 minute, then incubated for 2 minutes at room temperature. Background Signal control wells were prepared without tracer for background correction steps.
Plates were read using a PerkinElmer Envision Reader (model 2104-0020) equipped with Luminescence option (Mirror: BRET2 Enh (PE Barcode 659), Emission Filter: Omega 610LP (Barcode 504), 2nd Emission Filter: Umbelliferone 460 (Barcode 207), Measurement height: 6.5 mm, Measurement time: 1 s). The raw BRET ratio values were calculated by dividing the acceptor emission value (610 nm) by the donor emission value (460 nm) for each sample. To correct for background, the BRET ratio in the absence of tracer (average of no-tracer control samples) was subtracted from the BRET ratio of each sample. Raw BRET units were converted to milliBRET units (mBU) by multiplying each raw BRET value by 1,000. The normalized NanoBRET™ signal was calculated relative to the Max Signal control wells (DMSO treated control wells) and the Minimum Signal control wells. Percentage inhibition was calculated relative to the Minimum Signal control and Maximum Signal control wells. IC50 values were derived by four parameter curve fitting using the Robust method.

For a further data set, the target named is T2, VHL (Homo sapiens, UniProt P40337).
T2 construct: expressed in transfected cells
T2 sequence (P40337 whole entry): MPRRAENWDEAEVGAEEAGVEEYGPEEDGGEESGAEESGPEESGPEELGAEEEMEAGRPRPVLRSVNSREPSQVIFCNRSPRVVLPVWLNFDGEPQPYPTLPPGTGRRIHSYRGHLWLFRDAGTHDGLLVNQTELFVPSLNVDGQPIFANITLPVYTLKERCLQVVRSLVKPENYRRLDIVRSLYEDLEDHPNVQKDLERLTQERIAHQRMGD
T2 sequence (Q15370 whole entry partner): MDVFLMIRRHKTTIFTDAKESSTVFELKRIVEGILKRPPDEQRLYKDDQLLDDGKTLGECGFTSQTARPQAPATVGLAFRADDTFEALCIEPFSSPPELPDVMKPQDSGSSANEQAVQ
T2 sequence (Q15369 whole entry partner): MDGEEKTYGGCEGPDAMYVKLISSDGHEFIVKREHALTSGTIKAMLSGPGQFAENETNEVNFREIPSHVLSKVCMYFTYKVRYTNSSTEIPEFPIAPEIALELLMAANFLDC
As to the kind of experiment: VHL nanoBRET (+Digitonin). The data set is classed as cell-based.

T1 sequence (P40337 whole entry, the tested form may be a part): as the sequence (P40337 whole entry) above
T1 sequence (Q15370 whole entry partner, the tested form may be a part): as the sequence (Q15370 whole entry partner) above
T1 sequence (Q15369 whole entry partner, the tested form may be a part): as the sequence (Q15369 whole entry partner) above

In the case of `CNC(=O)[C@@H]1C[C@@H](O)CN1C(=O)[C@@H](n1cc(C2CC2)nn1)C(C)(C)C` [Final product from Example S2, (2S,4R)-1-((S)-2-(4-cyclopropyl-1H-1,2,3-triazol-1-yl)-3,3-dimethylbutanoyl)-4-hydroxy-N-methylpyrrolidine-2-carboxamide], in data set [1], the IC50 was determined as 2.99 µM and the “Ratio cell permeability shift” value was 1.17. At VHL, this molecule had an EC50 of 2.55 µM.
In the same order, the values of `CNC(=O)[C@@H]1C[C@@H](O)CN1C(=O)[C@H](C1CCCCC1)n1cc(C2CC2)nn1` [Final product from Example S3, (2S,4R)-1-((S)-2-cyclohexyl-2-(4-cyclopropyl-1H-1,2,3-triazol-1-yl)acetyl)-4-hydroxy-N-methylpyrrolidine-2-carboxamide] are 1.61 µM, 0.96 and 1.67 µM.
In the same order, the values of `CNC(=O)[C@@H]1C[C@@H](O)CN1C(=O)[C@@H](n1ccnn1)C(C)(C)C` [Final product from Example S4, (2S,4R)-1-((S)-3,3-dimethyl-2-(1H-1,2,3-triazol-1-yl)butanoyl)-4-hydroxy-N-methylpyrrolidine-2-carboxamide] are 15.2 µM, 1.26 and 12.1 µM.
In the same order, the values of `CNC(=O)[C@@H]1C[C@@H](O)CN1C(=O)C(n1cc(C2CC2)nn1)C1(C)CCCCC1` (stereo partly drawn) [Final product from Example S5, (2S,4R)-1-[2-(4-cyclopropyltriazol-1-yl)-2-(1-methylcyclohexyl)acetyl]-4-hydroxy-N-methyl-pyrrolidine-2-carboxamide] are 10.5 µM, 1.24 and 8.45 µM.
Consider `CNC(=O)[C@@H]1C[C@@H](O)CN1C(=O)[C@H](C1CCNCC1)n1cc(C2CC2)nn1` [Final product from Example S7, (2S,4R)-1-((S)-2-(4-cyclopropyl-1H-1,2,3-triazol-1-yl)-2-(piperidin-4-yl)acetyl)-4-hydroxy-N-methylpyrrolidine-2-carboxamide], for which the “Ratio cell permeability shift” value in data set [1] is more than 10.00. Besides, on VHL, the EC50 worked out at 8.96 µM.
In the same order, the values of `CNC(=O)[C@@H]1C[C@@H](O)CN1C(=O)[C@H](C1CCN(C)CC1)n1cc(C2CC2)nn1` [Final product from Example S8, (2S,4R)-1-((S)-2-(4-cyclopropyl-1H-1,2,3-triazol-1-yl)-2-(1-methylpiperidin-4-yl)acetyl)-4-hydroxy-N-methylpyrrolidine-2-carboxamide] are more than 10.00 and 10.8 µM.
On to `CNC(=O)[C@@H]1C[C@@H](O)CN1C(=O)[C@H](C1CCN(C(C)=O)CC1)n1cc(C2CC2)nn1` [Final product from Example S9, (2S,4R)-1-((S)-2-(1-acetylpiperidin-4-yl)-2-(4-cyclopropyl-1H-1,2,3-triazol-1-yl)acetyl)-4-hydroxy-N-methylpyrrolidine-2-carboxamide], for which, in data set [1], the IC50 came out at 69.5 µM and the “Ratio cell permeability shift” value is 26.03. In addition, on VHL, it took 2.67 µM to reach a half-maximal effect (EC50).
In the same order, the values of `CNC(=O)[C@@H]1C[C@@H](O)CN1C(=O)[C@H](C1CCN(S(C)(=O)=O)CC1)n1cc(C2CC2)nn1` [Final product from Example S10, (2S,4R)-1-((S)-2-(4-cyclopropyl-1H-1,2,3-triazol-1-yl)-2-(1-(methylsulfonyl)piperidin-4-yl)acetyl)-4-hydroxy-N-methylpyrrolidine-2-carboxamide] are 10 µM, 4.83 and 2.07 µM.
On to `CNC(=O)[C@@H]1C[C@@H](OC(C)=O)CN1C(=O)[C@@H](n1cc(C2CC2)nn1)C(C)(C)C` [Final product from Example S12, (3R,5S)-1-((S)-2-(4-cyclopropyl-1H-1,2,3-triazol-1-yl)-3,3-dimethylbutanoyl)-5-(methylcarbamoyl)pyrrolidin-3-yl Acetate], for which, in data set [1], the IC50 amounted to 62.8 µM and the “Ratio cell permeability shift” value is 0.68. This molecule also registered an EC50 at VHL of 92.8 µM.
In the same order, the values of `CC(C)(C)[C@@H](C(=O)N1C[C@H](O)C[C@H]1C(=O)NC1CC1)n1cc(C2CC2)nn1` [Final product from Example S13, (2S,4R)—N-cyclopropyl-1-((S)-2-(4-cyclopropyl-1H-1,2,3-triazol-1-yl)-3,3-dimethylbutanoyl)-4-hydroxypyrrolidine-2-carboxamide] are 9.68 µM, 1.54 and 6.27 µM.
On to `CC(C)(C)[C@@H](C(=O)N1C[C@H](O)C[C@H]1C(=O)NCC(F)(F)F)n1cc(C2CC2)nn1` [Final product from Example S14, (2S,4R)-1-((S)-2-(4-cyclopropyl-1H-1,2,3-triazol-1-yl)-3,3-dimethylbutanoyl)-4-hydroxy-N-(2,2,2-trifluoroethyl)pyrrolidine-2-carboxamide], for which, in data set [1], the IC50 worked out at 6.55 µM and the “Ratio cell permeability shift” value was 1.24. On VHL, the EC50 came out at 5.3 µM.
Consider `CC(C)NC(=O)[C@@H]1C[C@@H](O)CN1C(=O)[C@@H](n1cc(C2CC2)nn1)C(C)(C)C` [Final product from Example S15, (2S,4R)-1-((S)-2-(4-cyclopropyl-1H-1,2,3-triazol-1-yl)-3,3-dimethylbutanoyl)-4-hydroxy-N-isopropylpyrrolidine-2-carboxamide], for which, in data set [1], the IC50 came out at 9.09 µM and the “Ratio cell permeability shift” value worked out at 1.52. Also, at VHL, the midpoint of the response, the EC50, lay at 5.99 µM.
In the same order, the values of `CC(C)(C)[C@@H](C(=O)N1C[C@H](O)C[C@H]1C(=O)NCCF)n1cc(C2CC2)nn1` [Final product from Example S16, (2S,4R)-1-((S)-2-(4-cyclopropyl-1H-1,2,3-triazol-1-yl)-3,3-dimethylbutanoyl)-N-(2-fluoroethyl)-4-hydroxypyrrolidine-2-carboxamide] are 2.43 µM, 0.68 and 3.56 µM.
Turning to `CCNC(=O)[C@@H]1C[C@@H](O)CN1C(=O)[C@@H](n1cc(C2CC2)nn1)C(C)(C)C` [Final product from Example S17, (2S,4R)-1-((S)-2-(4-cyclopropyl-1H-1,2,3-triazol-1-yl)-3,3-dimethylbutanoyl)-N-ethyl-4-hydroxypyrrolidine-2-carboxamide], in data set [1], the IC50 is 4.15 µM and the “Ratio cell permeability shift” value is on record as 1.07. The molecule also registered an EC50 on VHL of 3.89 µM.
In the same order, the values of `CC(C)(C)[C@@H](C(=O)N1C[C@H](O)C[C@H]1C(=O)NC1(C(F)(F)F)CC1)n1cc(C2CC2)nn1` [Final product from Example S18, (2S, 4R)-1-((S)-2-(4-cyclopropyl-1H-1,2,3-triazol-1-yl)-3,3-dimethylbutanoyl)-4-hydroxy-N-(1-(trifluoromethyl)cyclopropyl)pyrrolidine-2-carboxamide] are 4.99 µM, 1 and 4.99 µM.
In the same order, the values of `CNC(=O)[C@@H]1C[C@@H](O)CN1C(=O)[C@H](C(C)C)n1cc(-c2ccco2)nn1` [Final product from Example S19, (2S, 4R)-1-((S)-2-(4-(furan-2-yl)-1H-1,2,3-triazol-1-yl)-3-methylbutanoyl)-4-hydroxy-N-methylpyrrolidine-2-carboxamide] are 0.8 µM, 0.90 and 0.89 µM.
